# Reference: publication PMC9664868, “Dephospho-Coenzyme A Kinase Is an Exploitable Drug Target against Plasmodium falciparum: Identification of Selective Inhibitors by High-Throughput Screening of a Large Chemical Compound Library” (Antimicrobial Agents and Chemotherapy, 2022)
# Read-outs that look alike come from different tables or passages of the source.
# Tests used:
# HepG2 cell line = assay: Cytotoxicity assay (Cell Counting Kit-8); assay type: cell-based, human
# Experimental: Cytotoxicity against human cells was evaluated using the human liver carcinoma HepG2 cell line. HepG2 cells were cultured in D-MED supplemented with 4 mM L-glutamine and 10% fetal bovine serum (FBS) in a 75-cm^2 flask (Violamo) at 37°C. For the cytotoxicity assay, HepG2 cells in semiconfluent state were detached from the flask by incubating the cells with 5 mL D-MEM containing 0.25% trypsin-EDTA. After detachment, HepG2 cells were resuspended in D-MEM-supplemented L-glutamine and FBS, and cell viability was evaluated by incubating cells with 0.4% Trypan blue on a hemocytometer. An approximately 50-μL suspension containing 3,000 cells was dispensed into each well on a 384-well clear-bottom plate using a Multidrop Combi dispenser. Compounds dissolved in DMSO had been dispensed into wells to yield final concentrations of 100, 20, 4, 0.8, and 0.2 μM before cells were added. After cells were added to the plates, they were cultured at 37°C under 5% CO2. After 48 h cultivation, 5 μL of Cell Counting Kit-8 (Dojindo, Japan) was added, and the plates were further incubated for 2 h to assess cell growth and survival.
# [1] = test system: P. falciparum drug-resistant Dd2 strain; assay: Erythrocytic-stage parasite growth inhibition, diaphorase-coupled LDH assay, Dd2; assay type: cell-based, Plasmodium falciparum
# Experimental: (§1) Selected hit compounds were also tested against erythrocytic-stage parasites of P. falciparum drug-sensitive 3D7 and drug-resistant Dd2 strains ([39]). For the phenotypic assay, parasite cultures were synchronized with 5% (wt/vol) D-sorbitol as previously described ([40]). A synchronized culture containing ring-stage parasites of 0.3% parasitemia was initiated with a culture volume of 25 μL/well on a 384-well plate. A series of diluted compounds (at final concentrations of 50, 10, 2, 0.4, and 0.08 μM) were used to calculate IC50 values. Mefloquine at 50 μM and atovaquone at 20 μM were used as no-growth control (100% inhibition). After 72 h of incubation, parasite growth was measured by diaphorase-coupled lactate dehydrogenase (LDH) assay as previously described ([41]). Absorbance at 650 nm was measured using SpectraMax Paradigm multimode microplate reader (Molecular Devices, San Jose, CA, USA). The IC50 values were calculated as described above.
# [2] = test system: P. falciparum drug-sensitive 3D7 strain; assay: Erythrocytic-stage parasite growth inhibition, diaphorase-coupled LDH assay, 3D7; assay type: cell-based, Plasmodium falciparum; settings: for Selectivity index IC50 (HepG2/3D7): HepG2 IC50 / 3D7 IC50
# Experimental: as §1
# PfDPCK = PfDPCK (Plasmodium falciparum, UniProt Q8IL34); assay: PfDPCK inhibition, enzyme-coupled fluorescence ADP detection assay (HTS and IC50 determination); assay type: biochemical
# Experimental: High-throughput screening against recombinant PfDPCK was performed using the Drug Discovery Initiative (DDI) full library, available from The University of Tokyo, composed of approximately 210,000 compounds. The primary assay was performed on 1,536-well white plate format with a final volume of 2 μL/well, containing 10 μM test compounds using a Multidrop Combi reagent dispenser (Thermo Fisher Scientific, Waltham, MA). The reaction was conducted in the assay buffer described above with 100 μM ATP and 50 μM dephospho-CoA. The assay was carried out at room temperature for 4 h in a closed plastic container with wet tissues. The reaction was stopped, and produced ADP was quantified using an enzyme-coupled fluorescence ADP detection assay, using PHERAstar microplate reader (BMG Labtech, Offenburg, Germany) with excitation at 540 nm and emission at 590 nm, as previously described ([17]). The inhibition level was calculated as the percentage inhibition of DPCK activity with each compound compared to the activity with only dimethyl sulfoxide (DMSO) as control (no inhibition) and that with no enzyme as 100% inhibition. IC50 values of the hit compounds were determined under the same assay conditions for the screening: Z′ factor, signal-to-background ratio (S/B), signal-to-noise ratio (S/N), and coefficient of variation (CV) were calculated to estimate the quality of screening system as previously described ([18], [38]).
# The primary hits were reassayed in quadruplicate (n = 4) as in the primary screening. We next tested the confirmed secondary hits to exclude false positives that inhibit coupled fluorescence assay, but not PfDPCK. After exclusion of false positives, all tertiary hits were tested against human HsCOASY in the counterassay to exclude compounds that inhibit both PfDPCK and HsCOASY. The compounds showing >10% inhibition against HsCOASY were excluded from further studies. The IC50 values of the hit compounds were determined under the same assay conditions described as above for the primary screening, with the serially diluted compounds at 20, 10, 2.5, 0.5, and 0.1 μM at final concentrations. The assay was conducted in quadruplicate for each dilution, and IC50 values were calculated using GraphPad Software (San Diego, California USA).
# [3] = Homo sapiens, HepG2, 48 h, means ± SEMs, read-out: IC50 (μM) of: HepG2
# [4] = Plasmodium falciparum, drug-resistant Dd2, 72 h, means ± SEMs, read-out: IC50 (μM) of: Pf cell Dd2
# [5] = recombinant enzyme, means ± SEMs, read-out: IC50 (μM) of: PfDPCK
# [6] = Plasmodium falciparum, drug-sensitive 3D7, 72 h, means ± SEMs, read-out: IC50 (μM) of: Pf cell 3D7
# [7] = Homo sapiens, HepG2, ND (maximum concentration tested 100 μM), read-out: IC50 (μM) of: HepG2
# [8] = Homo sapiens, HepG2, Table S1, means ± SEM, read-out: IC50 (μM) HepG2
# [9] = Plasmodium falciparum, DD2, Table S1, means ± SEM, read-out: IC50 (μM) Pf cell Dd2
# [10] = Table 2, PfDPCK inhibitor scaffolds Gr4, Gr5, Gr8, read-out: IC50
# [11] = Plasmodium falciparum, 3D7, Table S1, means ± SEM, read-out: IC50 (μM) Pf cell 3D7
# [12] = Homo sapiens, HepG2, read-out: IC50 (μM) of: HepG2
# [13] = Plasmodium falciparum, DD2, 72 h, read-out: IC50 (μM) of: Pf cell Dd2
# [14] = Plasmodium falciparum, 3D7, 72 h, read-out: IC50 (μM) of: Pf cell 3D7
# Sequence of PfDPCK (Q8IL34 entry or part of it): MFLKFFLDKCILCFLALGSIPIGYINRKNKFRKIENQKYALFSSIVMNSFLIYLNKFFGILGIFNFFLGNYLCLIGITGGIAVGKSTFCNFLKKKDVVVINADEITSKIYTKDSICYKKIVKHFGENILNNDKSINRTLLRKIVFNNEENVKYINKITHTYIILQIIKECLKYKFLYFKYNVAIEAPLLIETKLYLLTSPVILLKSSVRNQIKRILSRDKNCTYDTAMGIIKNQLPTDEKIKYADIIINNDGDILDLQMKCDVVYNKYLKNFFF
"IC50 [1, 4] [nM]",IC50 (PfDPCK; [5]) [µM],"IC50 [2, 6] [nM]",Compound,IC50 (HepG2 cell line; [3]) [µM],Selectivity index IC50 (HepG2/Dd2) [1],Selectivity index IC50 (HepG2/3D7) [2],IC50 (HepG2 cell line; [7]) [µM],also measured
–,–,–,"O=C1C(O)=C([C@H]2CC[C@H](c3ccc(Cl)cc3)CC2)C(=O)c2ccccc21 [Atovaquone, reference compound]",79.9 ± 1.79,"499,375","363,181",–,"IC50 ([1]; Plasmodium falciparum, drug-resistant Dd2, value in nM, read-out: IC50 of: Pf cell Dd2): 0.16 ± 0.028 nM; IC50 ([2]; Plasmodium falciparum, drug-sensitive 3D7, value in nM, read-out: IC50 of: Pf cell 3D7): 0.22 ± 0.03 nM"
980 ± 500,0.4 ± 0.07,4430 ± 40,CNc1nc(NC(C)(C)C)nc(NC(C)(C)C)n1 [Compound A-2],> 100,>102,>23,–,–
1590 ± 230,0.52 ± 0.09,4450 ± 50,CCCn1c(C)cc(-c2csc(NC(=O)C3CC3)n2)c1C [Compound A-4],–,–,–,> 100,–
130 ± 10,1.09 ± 0.03,1100 ± 110,CCNC(=N)SCc1c(C)c(C)c(C)c(C)c1C [Compound A-7],9.04 ± 0.01,69.5,8.2,–,–
3400 ± 350,1.69 ± 0.05,1300 ± 60,Nc1nc(Nc2cccc(F)c2)nc2ccccc12 [Compound A-13],–,–,–,> 100,–
230 ± 10,2.09 ± 0.04,2210 ± 70,Cc1ccc(S(=O)(=O)Nc2cc(Cl)c(O)c3ccccc23)c(C)c1 [Compound A-16],39.6 ± 2.3,171.7,17.9,–,–
–,–,–,CCOc1ccc(-n2cc(-c3ccccc3)c3c(NCCN(C)C)ncnc32)cc1 [Compound A-17],–,–,–,–,"IC50 (HepG2 cell line; [8]): 8.45 ± 0.35 µM; IC50 [1, 9]: 2700 ± 440 nM; IC50 (PfDPCK; [10]): 2.15 ± 0.07 µM; IC50 [2, 11]: 22900 ± 1870 nM"
2650 ± 130,2.55 ± 0.03,3640 ± 40,Cc1cc(-c2csc(NC3CC3)n2)c(C)n1CCC1=CCCCC1 [Compound A-19],81.5,30.8,22.4,–,–
–,–,–,CCOC(=O)C1NC(c2ccc[n+](C)c2)C23c4c5c6c7c8c9c(c%10c%11c2c2c4c4c%12c5c5c6c6c8c8c%13c9c9c%10c%10c%11c%11c2c2c4c4c%12c%12c5c5c6c8c6c8c%13c9c9c%10c%10c%11c2c2c4c4c%12c5c6c5c8c9c%10c2c45)C713 (centres unmarked) [Compound A-22],–,–,–,–,"IC50 (HepG2 cell line; [12]): > 100 µM; IC50 [1, 13]: 6320 ± 350 nM; IC50 (PfDPCK): 3.25 ± 0.02 µM; IC50 [2, 14]: 30600 ± 1500 nM"
–,–,–,CCOC(=O)CN1C(C(=O)OCC)C23c4c5c6c7c8c9c(c%10c%11c2c2c4c4c%12c5c5c6c6c8c8c%13c9c9c%10c%10c%11c%11c2c2c4c4c%12c%12c5c5c6c8c6c8c%13c9c9c%10c%10c%11c2c2c4c4c%12c5c6c5c8c9c%10c2c45)C73C1c1cc[n+](C)cc1 (centres unmarked) [Compound A-23],–,–,–,–,"IC50 (HepG2 cell line; ND (maximum concentration tested 100 μM), read-out: IC50 (μM) of: HepG2): > 100 µM; IC50 ([1]; drug-resistant Dd2, 72 h, means ± SEMs, read-out: IC50 (μM) of: Pf cell Dd2): 7420 ± 460 nM; IC50 (PfDPCK): 3.31 ± 0.02 µM; IC50 ([2]; drug-sensitive 3D7, 72 h, means ± SEMs, read-out: IC50 (μM) of: Pf cell 3D7): 4470 ± 120 nM"
> 50000,3.45 ± 0.07,1640 ± 30,Cc1cc(Nc2cc3ccccc3cc2O)n2ncnc2n1 [Compound A-25],–,–,–,> 100,–
3410 ± 1220,3.5 ± 0.04,14450 ± 80,Cc1ccc(-c2nnc(Nc3ccc(O)cc3)c3ccccc23)cc1S(=O)(=O)NCCO [Compound A-26],–,–,–,> 100,–
90 ± 60,3.83 ± 0.03,80 ± 10,CCN(CC)CCn1c(=N)n(CC(=O)c2cc(C(C)(C)C)c(O)c(C(C)(C)C)c2)c2ccccc21 [Compound A-30],3.75 ± 3.55,43.5,45.1,–,–
–,–,–,CC1(C)NC(C(=O)O)C23c4c5c6c7c8c9c(c%10c%11c2c2c4c4c%12c5c5c6c6c8c8c%13c9c9c%10c%10c%11c%11c2c2c4c4c%12c%12c5c5c6c8c6c8c%13c9c9c%10c%10c%11c2c2c4c4c%12c5c6c5c8c9c%10c2c45)C713 (centres unmarked) [Compound A-31],–,–,–,–,"IC50 (HepG2 cell line; [12]): > 100 µM; IC50 [1, 13]: 670 ± 20 nM; IC50 (PfDPCK): 3.83 ± 0.04 µM; IC50 [2, 14]: > 50000 nM"
700 ± 100,4.87 ± 0.05,29060 ± 200,COc1ccc(NC(C)=O)cc1/N=C/c1cc(Br)cc(Br)c1O [Compound A-38],> 100,>142.8,>3.4,–,–
–,–,–,Cc1cccc(-n2cc(-c3ccccc3)c3c(NCCOCCO)ncnc32)c1 [Compound A-42],–,–,–,–,"IC50 (HepG2 cell line; [8]): 63.2 ± 3.48 µM; IC50 [1, 9]: 49700 ± 3220 nM; IC50 (PfDPCK; [10]): 6.14 ± 0.28 µM; IC50 [2, 11]: 38200 ± 2910 nM"
1750 ± 50,6.33 ± 0.11,3960 ± 40,Cc1cc(-c2csc(N3CCCC3)n2)c(C)n1-c1c(C)n(C)n(-c2ccccc2)c1=O [Compound A-44],–,–,–,> 100,–
–,–,–,O=C(O)C1NC(c2ccncc2)C23c4c5c6c7c8c9c(c%10c%11c2c2c4c4c%12c5c5c6c6c8c8c%13c9c9c%10c%10c%11c%11c2c2c4c4c%12c%12c5c5c6c8c6c8c%13c9c9c%10c%10c%11c2c2c4c4c%12c5c6c5c8c9c%10c2c45)C713 (centres unmarked) [Compound A-45],–,–,–,–,"IC50 (HepG2 cell line; [12]): > 100 µM; IC50 [1, 13]: 1290 ± 20 nM; IC50 (PfDPCK): 6.68 ± 0.24 µM; IC50 [2, 14]: 15600 ± 610 nM"
6620 ± 1120,6.99 ± 0.13,> 50000,COC(C(=O)N/N=C/c1ccccc1)c1ccccc1 (centres unmarked) [Compound A-50],–,–,–,> 100,–
620 ± 230,7.05 ± 0.08,15760 ± 120,Cc1cn2c(/C=C3\C(=O)N(C)c4ccccc43)c(C)nc2s1 [Compound A-51],> 100,>166.6,>6.3,–,–
5530 ± 950,8.35 ± 0.05,34140 ± 40,O=C1NC(=O)/C(=C/c2ccc(C(=O)Nc3ccc(O)cc3C(=O)O)cc2)S1 [Compound A-60],–,–,–,> 100,–
–,–,–,Cc1cc(-c2csc(-c3ccsc3)n2)c(C)n1CCCCCC(=O)O [Compound A-96],–,–,–,–,"IC50 [1, 9]: 27700 ± 2600 nM; IC50 (PfDPCK; [10]): 14.7 ± 0.28 µM; IC50 [2, 11]: 31000 ± 2100 nM"
190 ± 70,–,13 ± 6,"OC(c1cc(C(F)(F)F)nc2c(C(F)(F)F)cccc12)C1CCCCN1 (centres unmarked) [Mefloquine, reference compound]",1.73 ± 0.7,8.8,133,–,–
